# Test results taken from publication PMC5667507, “A novel ^18F-labelled high affinity agent for PET imaging of the translocator protein” (Chemical Science, 2015).
# System: TSPO
# Assay: Ex vivo autoradiography, U87MG-Luc2 orthotopic glioma bearing mice
# Format: in vivo, mouse
# Method: To investigate the behavior of [^18F]-AB5186 6 in vivo, ex vivo autoradiography was performed using mice bearing a U87MG-Luc2 orthotopic model of human glioblastoma. Animals were pre-treated with either vehicle (n = 4) or 1 mg kg^–1 unlabelled PK11195 (n = 4) administered intravenously 10 min prior to [^18F]-AB5186 6 intravenous injection. Animals were killed and brains were removed 20 min after the radiotracer was given and frozen. Cryostat sections were then used to generate autoradiograms. […] The non-tumour bearing contralateral side of the brain lacked proliferating cells and minimal TSPO expression and immunolabelled microglia were visible (data not shown). Under normal circumstances microglia express low levels of TSPO in the brain. […]
# temperature. Non-specific binding was determined in adjacent sections by incubating with [18F]- AB5186 6 in the presence of 10 µM PK11195 (Tocris, UK). […]
# Following this, the tissues were washed with 0.1% Tween® 20 in TBS (2 × 5 min) and a secondary one hour incubation at room temperature was performed using Dako horseradish-peroxidase labelled anti-mouse or anti-rabbit polymers. The sections were once again washed using 0.1% Tween® 20 in TBS (2 × 5 min) and the presence of antibody was detected using the 3,3’- diaminobenzidine chromagen solution diluted in Dako DAB+ substrate buffer. […]
smiles,measurement,setting,value
CCN(CC)C(=O)c1nc2ccccc2c(-c2ccccc2)c1C[18F] [[^18F]-AB5186 6],binding (tumour to contralateral optical density ratio) after PK11195 blockade,"1 mg kg^-1 unlabelled PK11195 i.v. 10 min before tracer, P = 0.0002",significantly reduced
same,"total binding, tumour tissue compared to contralateral region","ex vivo autoradiography, vehicle pre-treatment, brains removed 20 min after tracer i.v.",substantially higher
